Measured values taken from US20190167593A1, “C[…] PHARMACEUTICALLY ACCEPTABLE SALT THEREOF, AND APPLICATION OF SAME” (priority 2016, published 2019).
Converted amounts (≈) assume the structure as drawn. Where two headings read alike, the source gives them in different places.

How the values were obtained:
[1] = system: A/Puerto Rico/8/34 (H1N1) (PR8); assay: organism not typed; assay type: cell-based; conditions: MDCK cells, crystal violet staining, 3 days, read-out: IC50 against influenza virus replication (plaque formation), PR8
influenza virus PR8 = conditions: mouse, in vivo
physchem [2] = assay type: physicochemical; conditions: molar ratio compound:acid as listed per salt
physchem [3] = assay type: physicochemical; conditions: Non-lactic acid

| Compound | IC50 ([1]; listed as COMPOUND TO BE TESTED OF FORMULA I) [nM] | IC50 ([1]; MDCK, 72 h) [nM] | body weight (influenza virus PR8) | PH VALUE OF THE SOLUTION (physchem [2]) | solubility (physchem [2]; water, unit printed in b135 only) [µg/mL] | pH VALUE (physchem [3]) | solubility (physchem [3]; pH 7.8) [µg/mL] | IC50 ([1]; phosphate) [nM] | disease symptoms (influenza virus PR8) | IC50 [1] [nM] |
| --- | --- | --- | --- | --- | --- | --- | --- | --- | --- | --- |
| CCCCS(=O)(=O)N[C@@H]1CCCN([C@@H]2C=C(C(=O)O)C[C@H](NC(=N)N)[C@H]2NC(C)=O)C1 [(3R,4R,5S)-4-acetamido-5-guanidino-3-((3R)-3-n-butylsulfonamidopiperidin)-1-cyclohexene-1-carboxylic acid] | 252 | 250 | slightly decreased | 7.8 | 2500 | 7.8 | 2500 (≈ 5.45 mM) | – | – | – |
| CCOC(=O)C1=C[C@@H](OC(CC)CC)[C@H](NC(C)=O)[C@@H](N)C1.O=P(O)(O)O [Oseltamivir phosphate, ethyl (3R, 4R, 5S)-4-acetamido-5-amino-3-(1-ethylpropoxy)-1-cyclohexene-1-carboxylate phosphate] | – | 130 | – | – | – | – | – | 133 | obvious disease symptoms | – |
| Peramivir | – | – | – | – | – | – | – | – | – | 17.6 |
